{
  "source": "patent US20240366693A1",
  "about": "“COMPOSITIONS FOR ENHANCING IMMUNOTHERAPY EFFICACY IN COLORECTAL CANCER TREATMENT” (The Chinese University of Hong Kong, priority 2023, published 2024)",
  "key": {"[1]": {"tested_on": "CD4+ T cells", "experiment": "Foxp3+ Treg differentiation of CD4+ T cells in vitro", "type": "cell-based, mouse", "method": "T cells were isolated from spleens of tumour-bearing mice by negative selection using magnetic cell separation (EasySep mouse T cell isolation kit, CD8+ T cell isolation kit or CD4+ CD25+ Regulatory T cell Isolation Kit II; STEMCELL Technologies, Vancouver, Canada). Isolated T cells were cultured in Roswell Park Memorial Institute 1640 medium supplemented with 10% FBS, 50 μM β-mercaptoethanol, 10 ng/ml mouse recombinant interleukin-2 (IL-2), 0.1 ng/mL transforming growth factor β (TGFβ) and activated with Dynabeads mouse anti-CD3/CD28 beads (Thermo Fisher Scientific, Waltham, MA) for 72 hours. Cells were then collected for analysis."}, "[2]": {"tested_on": "CD8+ T cells", "experiment": "Cytotoxic CD8+ T cell markers, T cells from human PBMC", "type": "cell-based", "conditions": "TH1020 with butyrate", "method": "T cells isolated from healthy human peripheral blood mononuclear cells (PBMC) using immunomagnetic negative selection kit (17951, Stemcell Technologies, Vancouver, CA). Isolated T cells were then cultured in complete RPMI-1640 medium supplied with human CD3/CD28 magnet beads (11161D, Thermo Fisher Scientific, Waltham, US) and 30 U/ml recombinant human IL-2 (589104, BioLgend, San Diego, US) for expiation and activation for three days. Mouse T cells were isolated from the spleen of naïve mice and purified with Mouse T cell isolation kit (19851, Thermo Fisher Scientific, Waltham, US), cultured in complete RPMI-1640 medium with mouse CD3/CD28 beads (11456D, Thermo Fisher Scientific, Waltham, US) and 30 U/ml recombinant mouse IL-2 (575404, BioLegend, San Diego, US).\nCytotoxic CD8+ T cell markers Granzyme B, IFN-γ, TNF-α under the in vitro treatments of R.i CM, NaBu or TLR5 inbibitor TH1020 (HY-116961, MedChemExpress, Monmouth Junction, US) were analyzed with flow cytometry. Isolated human T cells were stimulated with 30 ng/ml PMA, 1 μg/ml ionomycin and 2.5 μg/ml monensin in complete RPMI-1640 medium at 37° C. for 4 hours. […]"}, "[3]": {"tested_on": "NF-κB", "experiment": "Phospho-NF-κB p65 in activated Jurkat E6.1 T cells", "type": "cell-based, human", "conditions": "TH1020", "method": "Phospho-NF-κB p65 (Ser536) Rabbit mAb (3033, Cell Signalling Technology, Danvers, US, 1:1000) and NF-κB p65 (D14E12) Rabbit mAb (8242, Cell Signalling Technology, Danvers, US, 1:1000) were used to measure NF-κB nuclear translocation in αCD3/αCD28/IL2 activated Jurkat E6.1 T cells.\nNormal human epithelial cell NCM460, human CRC cell lines HCT116, LoVo, SW480, and mouse CRC cell lines MC38 and CT26 were cultured in Dulbecco's Modified Eagle's Medium (DMEM) with 10% fetal bovine serum (FBS) and 1% penicillin-streptomycin (P/S). Jurkat E6.1 (TIB-152, ATCC) was cultured in RPMI-1640 supplied with 10% FBS and 1% penicillin-streptomycin and activated in 3 μg/ml anti-CD3 (300332, BioLgend, San Diego, US), 5 μg/ml anti-human CD28 (302934, BioLgend, San Diego, US) and 100 IU/ml recombinant human IL-2 (589104, BioLgend, San Diego, US) pre-coated wells for 3 days."}, "[4]": {"tested_on": "MC-38", "experiment": "MC38 rectum orthotopic tumour model", "type": "in vivo, mouse", "method": "A MSI type mouse CRC cell line, MC-38 cell mix [5×10^5 cells in 10 μL Matrigel (354248, Corning, Manassas, US) per mouse] was orthotopically implanted into the rectum of C57BL/6. […] RMP1-14, Bio X Cell, West Lebanon, US) or control IgG (100 μg per mouse, BP0089, Colone: 2A-3, Bio X Cell) was injected intraperitoneally into MC-38 bearing mice, and followed by total five injections with three days interval one week after MC38 implantation. For tumour-infiltrating immune cell analysis, tumour from MC-38 and CT-26 bearing rectal orthotopic mouse models was minced on ice and digested in PBS buffer containing 0.5 mg/mL collagenase IV and 0.25 mg/ml DNase I at 37° C. for 30 min. After digestion, tumour tissue was filtered through a 70 μm cell strainers, and then distributed into different panels. For the surface staining of MDSC, cells were stained with Brilliant Violet 605 anti-mouse CD45 antibody (30-F11) (103140, BioLegend), PerCP/Cyanine5.5 anti-mouse/human CD11b antibody (M1/70) (101228, BioLegend), PE anti-mouse Ly-6G/Ly-6C (Gr-1) antibody (RB6-8C5). MDSC was gated in CD45^+ CD11b^+ Gr-1^+. For CD8 functional markers staining, the procedures were similar with the in vitro T cell analysis. Antibodies used for staining are as following: Brilliant Violet 605 anti-mouse CD45 antibody (30-F11) (103140, BioLegend), PE anti-mouse CD3 antibody (17A2) (100206, BioLegend), Brilliant Violet anti-mouse CD8a antibody (53-6.7) (100738, BioLegend), PE/Cyanine5 anti-mouse CD4 antibody (GK1.5) (100410, BioLegend), PE/Cyanine7 anti-human/mouse Granzyme B recombinant antibody (QA16A02) (372214, BioLegend), FITC anti-mouse IFN-γ antibody (XMG1.2) (505806, BioLegend), Brilliant Violet 711 anti-moue TNF-α (MP6-XT22) (506349, BioLegend). Flow Cytometry was performed on FACSAria cell sorter (BD Biosciences, Franklin Lakes, US). Data was analyzed by FlowJo 10.4."}, "[5]": {"tested_on": "CT-26", "experiment": "CT26 rectum orthotopic tumour model", "type": "in vivo, mouse", "source_text": "CT-26 tumour-bearing BALB/c mice with the same setting and treatment of MC-38 orthotopic model was developed to evaluate the efficacy of αPD-1 antibody immunotherapy on microsatellite stable (MSS)-type colorectal cancer. All experimental procedures were approved by the Chinese University of Hong Kong Animal Ethics Committee.\nFor tumour-infiltrating immune cell analysis, tumour from MC-38 and CT-26 bearing rectal orthotopic mouse models was minced on ice and digested in PBS buffer containing 0.5 mg/mL collagenase IV and 0.25 mg/ml DNase I at 37° C. for 30 min. After digestion, tumour tissue was filtered through a 70 μm cell strainers, and then distributed into different panels. For the surface staining of MDSC, cells were stained with Brilliant Violet 605 anti-mouse CD45 antibody (30-F11) (103140, BioLegend), PerCP/Cyanine5.5 anti-mouse/human CD11b antibody (M1/70) (101228, BioLegend), PE anti-mouse Ly-6G/Ly-6C (Gr-1) antibody (RB6-8C5). MDSC was gated in CD45^+ CD11b^+ Gr-1^+. For CD8 functional markers staining, the procedures were similar with the in vitro T cell analysis. Antibodies used for staining are as following: Brilliant Violet 605 anti-mouse CD45 antibody (30-F11) (103140, BioLegend), PE anti-mouse CD3 antibody (17A2) (100206, BioLegend), Brilliant Violet anti-mouse CD8a antibody (53-6.7) (100738, BioLegend), PE/Cyanine5 anti-mouse CD4 antibody (GK1.5) (100410, BioLegend), PE/Cyanine7 anti-human/mouse Granzyme B recombinant antibody (QA16A02) (372214, BioLegend), FITC anti-mouse IFN-γ antibody (XMG1.2) (505806, BioLegend), Brilliant Violet 711 anti-moue TNF-α (MP6-XT22) (506349, BioLegend). Flow Cytometry was performed on FACSAria cell sorter (BD Biosciences, Franklin Lakes, US). Data was analyzed by FlowJo 10.4."}, "[6]": {"target": "T1, human AHR protein (Homo sapiens, UniProt P35869)", "T1 sequence (P35869 11-848)": "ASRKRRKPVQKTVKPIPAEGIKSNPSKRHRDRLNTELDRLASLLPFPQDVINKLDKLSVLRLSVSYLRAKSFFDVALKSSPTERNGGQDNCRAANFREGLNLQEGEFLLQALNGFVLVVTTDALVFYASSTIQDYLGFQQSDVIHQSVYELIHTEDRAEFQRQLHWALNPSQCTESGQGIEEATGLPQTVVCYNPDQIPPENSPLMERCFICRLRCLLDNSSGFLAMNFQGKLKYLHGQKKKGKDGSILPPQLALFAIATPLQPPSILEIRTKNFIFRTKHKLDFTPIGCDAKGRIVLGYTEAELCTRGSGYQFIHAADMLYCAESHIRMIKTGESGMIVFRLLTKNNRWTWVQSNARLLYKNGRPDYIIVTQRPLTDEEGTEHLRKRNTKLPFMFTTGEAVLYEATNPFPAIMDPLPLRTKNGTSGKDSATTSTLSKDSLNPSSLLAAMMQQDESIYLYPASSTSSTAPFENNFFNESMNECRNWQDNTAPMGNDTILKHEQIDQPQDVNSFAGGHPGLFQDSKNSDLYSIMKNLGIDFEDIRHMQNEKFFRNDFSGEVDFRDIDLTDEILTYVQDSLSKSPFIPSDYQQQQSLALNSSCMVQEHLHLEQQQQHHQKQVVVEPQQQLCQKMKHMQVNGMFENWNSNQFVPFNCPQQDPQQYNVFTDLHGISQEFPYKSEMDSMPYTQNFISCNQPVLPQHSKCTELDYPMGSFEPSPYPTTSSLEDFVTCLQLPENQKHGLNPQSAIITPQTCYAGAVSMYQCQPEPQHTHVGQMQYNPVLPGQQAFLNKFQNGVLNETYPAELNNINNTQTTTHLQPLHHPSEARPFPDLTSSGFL", "experiment": "biochemical", "type": "binding", "source_text": "We also performed the surface plasma resonance (SPR) assay to explore the interaction between ICA/Kyn with the human AHR receptor. […] These support our hypothesis that ICA displaces Kyn from AHR receptor and inhibited Kyn-mediated Treg differentiation through receptor competition."}, "[7]": {"tested_on": "CT26", "experiment": "ICA model in CT26 syngeneic mice with anti-PD1 and Kyn supplementation", "type": "in vivo, mouse", "conditions": "Kyn 10 mg/kg i.p. twice weekly", "method": "For indolecarboxylic acid (ICA) model, ICA (18 mg/kg, Sigma-Aldrich, St. Louis, MO) was gavaged to mice daily. Tumour inoculation and dosing schedule of anti-PD1 or isotype control is the same as described above. After the outgrowth of palpable tumours, kynurenine (Kyn, 10 mg/kg, Sigma-Aldrich) was intraperitoneally injected into mice twice weekly."}, "[8]": {"conditions": "treatment alone vs αPD-1 therapy and control groups"}},
  "data": [
    {"smiles": "O=Cc1c[nH]c2ccccc12", "note": "[IAld, indole-3-carboxaldehyde, reference compound]", "values": [
      {"measurement": "Treg differentiation, treatment alone", "setting": "[1]; naïve CD4+ T cells, without Kyn", "value": "none significantly affected Treg differentiation"}
    ]},
    {"smiles": "c1ccc(Cn2c(Sc3ncnc4c3sc3ncccc34)nnc2-c2ccncc2)cc1", "note": "[TH1020, reference compound]", "values": [
      {"measurement": "butyrate promotion of Granzyme B, IFN-γ and TNF-α in CD8+ T cells under TLR5 antagonist", "setting": "[2]", "value": "abolished the effective promotion of butyrate on Granzyme B, IFN-γ and TNF-α in CD8+ T cells"},
      {"measurement": "R.i CM- and butyrate-induced phospho-NF-κB under TLR5 antagonist", "setting": "[3]", "value": "inhibited by Th1020"}
    ]},
    {"smiles": "Cc1ccccc1N=Nc1ccc(NC(=O)c2ccnn2C)c(C)c1", "note": "[CH-233191, reference compound]", "values": [
      {"measurement": "Kyn and ICA effects on Treg differentiation", "setting": "[1]; CH-233191 10 μM", "value": "abolished both Kyn and ICA effects in mediating Treg differentiation"}
    ]},
    {"smiles": "CCCC(=O)[O-].[Na+]", "note": "[NaBu, sodium butyrate]", "values": [
      {"measurement": "efficiency of αPD-1 therapy in combination", "setting": "[4]; combination of αPD-1 with R.i or NaBu", "value": "did not enhance the efficiency of αPD-1 therapy"},
      {"measurement": "MC38 orthotopic tumour growth", "setting": "[4]; monotreatment, R.i 1×10^8 CFU daily gavage, 150 mM NaBu in drinking water, αPD-1 100 μg per mouse", "value": "inhibited MC38 orthotopic tumour growth"},
      {"measurement": "Granzyme B+, IFN-γ+ and TNF-α+ CD8+ T cells", "setting": "[4]; mouse, in vivo", "value": "increased"},
      {"measurement": "MDSCs", "setting": "[4]; mouse, in vivo", "value": "decreasing MDSCs"},
      {"measurement": "tumour infiltrating CD8+ T cells", "setting": "[4]; mouse, in vivo", "value": "increased infiltrating CD8^+ T cells"},
      {"measurement": "anti-tumour effects in combination with anti-PD-1", "setting": "[5]; combination with anti-PD-1", "value": "further heightened the anti-tumour effects"},
      {"measurement": "infiltrating and cytotoxic CD8+ T cells in combination with anti-PD-1", "setting": "[5]; combination with anti-PD-1", "value": "additional effects on these immune cells"},
      {"measurement": "proportion of MDSCs in tumours", "setting": "[5]; monotherapy", "value": "reduced the proportion of MDSCs in tumours"},
      {"measurement": "Granzyme B+, IFN-γ and TNF-α+ CD8+ T cells", "setting": "[5]; monotreatment", "value": "significantly increased"},
      {"measurement": "proportion of infiltrating CD8+ T cells", "setting": "[5]; monotreatment", "value": "significantly increased"},
      {"measurement": "tumour size", "setting": "[5]; [8]", "value": "still reduced"},
      {"measurement": "tumour weight", "setting": "[5]; [8]", "value": "still reduced"}
    ]},
    {"smiles": "Nc1ccccc1C(=O)CC(N)C(=O)O", "note": "(centres unmarked) [Kyn, Kynurenine, reference compound]", "values": [
      {"measurement": "Treg differentiation", "setting": "[1]; Kyn 50 μM, P<0.0001", "value": "significantly induced Treg differentiation"},
      {"measurement": "Kd", "setting": "[6]", "value": 61, "unit": "µM"},
      {"measurement": "effect of Kyn supplementation on ICA immune effects", "setting": "[7]", "value": "also reversed by Kyn supplementation"},
      {"measurement": "effect of Kyn supplementation on ICA tumour effect", "setting": "[7]", "value": "reversed the effect of ICA"}
    ]}
  ]
}
